Literature values in patent publication US11207297B2, “Liquid pharmaceutical composition of clonidine” (SYRI LTD, priority 2016, dated 2021).

Details: after oral administration

- Absorption from the gastrointestinal tract: almost completely absorbed
SMILES: Clc1cccc(Cl)c1N=C1NCCN1 [clonidine, N-(2,6-dichlorophenyl)-4,5-dihydro-1H-imidazol-2-amine]
